Earlier results on two compounds are cited in patent US20110052581A1 (Poniard Pharmaceuticals Inc., priority 2008, published 2011).

The subject of this data set is patients with advanced colorectal cancer. The following applies: single agent therapy.

Take `CCc1c2c(nc3ccc(OC(=O)N4CCC(N5CCCCC5)CC4)cc13)-c1cc3c(c(=O)n1C2)COC(=O)[C@]3(O)CC` [irinotecan]: the median survival is recorded as about 12 months, the “progression-free survival (median)” value was 4.3 months and the response rate was 18%.
Take `O=C1[O][Pt]2([NH][C@@H]3CCCC[C@H]3[NH]2)[O]C1=O` [oxaliplatin]: the “progression-free survival (median)” value is given as 4.0 months and the response rate is 12%.
